# Target: T1, bovine cerebral TPK1 (Bos taurus, UniProt A0A3Q1MT31)
# T1 construct: from tissue; host or cells: bovine brain (cerebrum)
# Experiment: Inhibitory activity against P-GS1 phosphorylation by bovine cerebral TPK1
# Type: biochemical
# Details: 41.7 μM [γ-32P]ATP, 25° C., 2 hours, pH 6.5
# Method: Inhibitory Activity of the Medicament of the Present Invention Against P-GS1 Phosphorylation by Bovine Cerebral TPK1
# A mixture containing 100 mM MES-sodium hydroxide (pH 6.5), 1 mM magnesium acetate, 0.5 mM EGTA, 5 mM β-mercaptoethanol, 0.02% Tween 20, 10% glycerol, 12 μg/ml P-GS1, 41.7 μM [y-^32P] ATP (68 kBq/ml), bovine cerebral TPK1 and a compound shown in Table (a final mixture contained 1.7% DMSO deriving from a solution of a test compound prepared in the presence of 10% DMSO) was used as a reaction system. The phosphorylation was started by adding ATP, and the reaction was conducted at 25° C. for 2 hours, and then stopped by adding 21% perchloric acid on ice cooling. The reaction mixture was centrifuged at 12,000 rpm for 5 minutes and adsorbed on P81 paper (Whatmann), and then the paper was washed four times with 75 mM phosphoric acid, three times with water and once with acetone. The paper was dried, and the residual radioactivity was measured using a liquid scintillation counter. […] PHF formation, and that the medicaments of the present invention are effective for preventive and/or therapeutic treatment of Alzheimer disease and the above-mentioned diseases.
# T1 sequence (A0A3Q1MT31 1-419): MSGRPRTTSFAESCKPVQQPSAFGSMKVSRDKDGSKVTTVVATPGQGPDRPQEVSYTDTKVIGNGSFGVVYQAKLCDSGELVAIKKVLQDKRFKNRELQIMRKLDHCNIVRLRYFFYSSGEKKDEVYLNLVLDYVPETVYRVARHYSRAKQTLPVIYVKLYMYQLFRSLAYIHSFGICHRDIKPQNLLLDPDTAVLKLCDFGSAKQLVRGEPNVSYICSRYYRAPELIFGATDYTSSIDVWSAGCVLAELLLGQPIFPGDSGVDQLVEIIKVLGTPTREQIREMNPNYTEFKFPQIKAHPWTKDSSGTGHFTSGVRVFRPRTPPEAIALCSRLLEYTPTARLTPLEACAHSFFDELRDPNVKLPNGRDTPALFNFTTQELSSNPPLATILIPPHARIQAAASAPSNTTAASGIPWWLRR
row,Structure (SMILES),IC50 [pM]
1,COc1ccc(-c2cccnc2)cc1C1CN(c2nc(-c3ccncn3)cc(=O)n2C)CCO1 (stereo not drawn) [Compound B256],640
2,COc1ccccc1[C@H]1CN(c2nc(-c3ccncn3)cc(=O)n2C)CCO1 [Compound B085],870
3,COc1ccc(Nc2ccccc2)cc1C1CN(c2nc(-c3ccncn3)cc(=O)n2C)CCO1 (stereo not drawn) [Compound B269],1100

# — patent US7572793B2, “3-Substituted-4-pyrimidone derivatives” (Mitsubishi Tanabe Pharma Corporation, priority 2001, dated 2009)
